For eight compounds, GI50 and TGI results are on record in PubChem BioAssay (NCI).

Several values for one entry are separate records, joined by “and”; a condition that tells them apart may be missing. Equal entries are not always repeated.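 Interpolation was linear, between the two tested concentrations surrounding the appropriate level; five concentrations were tested over 48 hours in 96-well plates. GI50: concentration for 50% inhibition of growth. TGI is the concentration that stops growth completely.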

Test systems include HCT-116 colon; HCT-15 colon; KM12 colon; MOLT-4 leukemia; OVCAR-5 ovarian; RPMI-8226 leukemia; SNB-75 CNS; SR leukemia; UACC-257 melanoma; UO-31 renal.
Common to all, as to test: growth of human tumour cells (NCI), 48 h

In the case of `COc1ccc(C2=C(N3CCc4ccccc43)C(=O)NC2=O)cc1`, the GI50 with HCT-116 colon was greater than 25 µM; with HCT-15 colon it was greater than 25 µM; in the experiment on KM12 colon, greater than 25 µM; in the experiment with MOLT-4 leukemia, 25 µM; in the experiment with OVCAR-5 ovarian, greater than 25 µM; in the experiment with RPMI-8226 leukemia, greater than 22.9 µM. The GI50 was greater than 24.1 µM in the experiment with SNB-75 CNS, 13.7 µM in the experiment with SR leukemia, greater than 25 µM in the experiment on UACC-257 melanoma and 9.88 µM in the experiment on UO-31 renal. The TGI in the experiment on HCT-116 colon, in the experiment on HCT-15 colon, with KM12 colon, in the experiment with MOLT-4 leukemia, in the experiment on OVCAR-5 ovarian and in the experiment with RPMI-8226 leukemia was greater than 25 µM in each case. The TGI with SNB-75 CNS, in the experiment with SR leukemia, with UACC-257 melanoma and in the experiment on UO-31 renal was greater than 25 µM throughout.
As to `c1cnn2ncc(-c3ccnc(Nc4ccc5c(c4)OCCO5)n3)c2c1`, the GI50 was 0.0533 µM with HCT-116 colon; 0.0863 µM in the experiment on HCT-15 colon; 0.07 µM with KM12 colon; 0.0664 µM in the experiment with MOLT-4 leukemia; 0.0866 µM in the experiment on OVCAR-5 ovarian; 0.0783 µM in the experiment on RPMI-8226 leukemia. Moreover, the GI50 was 0.0671 µM in the experiment on SNB-75 CNS, 0.0466 µM in the experiment on SR leukemia, 0.0671 µM in the experiment with UACC-257 melanoma and 0.0917 µM with UO-31 renal. The TGI in the experiment with HCT-116 colon was 1.04 µM; with HCT-15 colon it was greater than 25 µM; in the experiment on KM12 colon, 0.303 µM; with MOLT-4 leukemia it was 0.622 µM; in the experiment on OVCAR-5 ovarian, greater than 25 µM; with RPMI-8226 leukemia, 0.388 µM. Further, the TGI is 0.173 µM in the experiment on SNB-75 CNS, 0.198 µM in the experiment on UACC-257 melanoma and greater than 25 µM in the experiment with UO-31 renal.
Regarding `CCN(CC)c1ccc(/C=C/C2=[N+](C)c3ccccc3C2(C)C)c(C)c1`, the GI50 in the experiment on HCT-116 colon is less than 0.02 µM; in the experiment with HCT-15 colon, 0.321 µM; with KM12 colon it was 0.0491 µM; in the experiment on MOLT-4 leukemia, 0.0512 µM; in the experiment on OVCAR-5 ovarian it was 0.128 µM; in the experiment with RPMI-8226 leukemia, less than 0.0164 µM. In addition, the GI50 in the experiment with SNB-75 CNS was 0.0736 µM; in the experiment with SR leukemia, 0.0275 µM; with UACC-257 melanoma, 0.0546 µM; with UO-31 renal, 0.088 µM. The TGI was 3.82 µM in the experiment with HCT-116 colon; 10.9 µM with HCT-15 colon; 1.36 µM in the experiment with KM12 colon; 1.55 µM with MOLT-4 leukemia; 16.8 µM with OVCAR-5 ovarian; 0.466 µM with RPMI-8226 leukemia. The TGI in the experiment on SNB-75 CNS was found to be 0.876 µM; in the experiment with SR leukemia, 1.71 µM; in the experiment with UACC-257 melanoma it was 0.226 µM; with UO-31 renal, 2.53 µM.
In the case of `Cc1cccc(C)c1N1C(=O)C(=O)C(c2nc3ccccc3s2)C(=Nc2cccc3c(=O)[nH][nH]c(=O)c23)C1=O` (stereo not drawn), the TGI with HCT-116 colon, with HCT-15 colon, in the experiment with KM12 colon, in the experiment on MOLT-4 leukemia, in the experiment with OVCAR-5 ovarian and with RPMI-8226 leukemia was greater than 100 µM in each case. Also, the TGI in the experiment on SNB-75 CNS, in the experiment on SR leukemia, with UACC-257 melanoma and in the experiment with UO-31 renal was greater than 100 µM throughout.
Consider `O=C(NCCN1CCNCC1)c1ccc(Nc2nc3ccccc3c3occc23)cc1`, for which the GI50 with HCT-116 colon is 4.11 µM; in the experiment on HCT-15 colon, 20 µM; with KM12 colon, 19 µM; in the experiment on MOLT-4 leukemia, 20.4 µM; with OVCAR-5 ovarian, 15 µM; in the experiment on RPMI-8226 leukemia it was 18.7 µM. Also, the GI50 was 7.06 µM in the experiment on SNB-75 CNS, 25 µM in the experiment with SR leukemia, 17 µM with UACC-257 melanoma and 11.1 µM in the experiment on UO-31 renal. The TGI is 15.8 µM with HCT-116 colon; 37.9 µM with HCT-15 colon; 40.6 µM in the experiment on KM12 colon; 36.9 µM in the experiment on MOLT-4 leukemia; 29.5 µM with OVCAR-5 ovarian; 49.1 µM with RPMI-8226 leukemia. The TGI with SNB-75 CNS was found to be 25.9 µM; with SR leukemia it was 43.8 µM; in the experiment on UACC-257 melanoma, 33.8 µM; with UO-31 renal it was 27.9 µM.
In the case of `Cc1cccc(N=Nc2ccc(N=Nc3c(O)ccc4ccccc34)cc2C)c1`, the TGI in the experiment on HCT-116 colon, with HCT-15 colon, in the experiment with KM12 colon, in the experiment on MOLT-4 leukemia, in the experiment with OVCAR-5 ovarian and with RPMI-8226 leukemia was greater than 100 µM each time. The TGI was 37.8 µM in the experiment on SNB-75 CNS, 49.5 µM with SR leukemia, greater than 100 µM in the experiment on UACC-257 melanoma and greater than 100 µM with UO-31 renal.
For `OCc1ccc(N2CCOCC2)cc1Cl`, the GI50 was 28.6 µM with HCT-116 colon; greater than 100 µM with HCT-15 colon; greater than 100 µM in the experiment on KM12 colon; greater than 100 µM in the experiment with MOLT-4 leukemia; 2.42 µM in the experiment on OVCAR-5 ovarian; greater than 84.4 µM with RPMI-8226 leukemia. Moreover, the GI50 in the experiment on SNB-75 CNS is greater than 100 µM; with SR leukemia, greater than 100 µM; in the experiment with UACC-257 melanoma it was 7.2 µM; in the experiment on UO-31 renal, greater than 100 µM. Also, the TGI with HCT-116 colon is greater than 100 µM; in the experiment with HCT-15 colon, greater than 100 µM; with KM12 colon, greater than 100 µM; in the experiment with MOLT-4 leukemia, greater than 100 µM; in the experiment on OVCAR-5 ovarian, 10.6 µM; in the experiment on RPMI-8226 leukemia, greater than 100 µM. Besides, the TGI in the experiment on SNB-75 CNS is greater than 100 µM; in the experiment on SR leukemia, greater than 100 µM; with UACC-257 melanoma, 24.1 µM; with UO-31 renal, greater than 100 µM.
Take `COc1ccc(F)c(F)c1C(=O)c1cnc(NC2CCN(S(C)(=O)=O)CC2)nc1N`: the GI50 with HCT-116 colon is 0.257 µM and 0.183 µM; in the experiment on HCT-15 colon it was 0.484 µM and 0.361 µM; with KM12 colon, 0.402 µM and 0.306 µM; in the experiment with MOLT-4 leukemia, 0.39 µM and 0.321 µM; in the experiment on OVCAR-5 ovarian, 0.728 µM and 0.251 µM; in the experiment with RPMI-8226 leukemia it was 0.791 µM and 0.353 µM. Further, the GI50 with SNB-75 CNS was 1.26 µM and 1.09 µM; in the experiment with SR leukemia, 0.188 µM and 0.114 µM; with UACC-257 melanoma, 1.44 µM and 1.61 µM; in the experiment with UO-31 renal, 0.779 µM and 0.36 µM. For the same compound, the TGI with HCT-116 colon is greater than 100 µM; in the experiment on HCT-15 colon it was greater than 100 µM; in the experiment on KM12 colon it was greater than 29.8 µM; in the experiment with MOLT-4 leukemia, greater than 100 µM; in the experiment with OVCAR-5 ovarian, greater than 100 µM; with RPMI-8226 leukemia, 4.98 µM and 5.57 µM. Also, the TGI with SNB-75 CNS was 3.62 µM and 2.73 µM; in the experiment with UACC-257 melanoma it was 6.38 µM and 8.94 µM; in the experiment on UO-31 renal, 6.96 µM and > 9.24 µM.
